Measurements reported in patent US8193372B2, “Phosphothiophene and phosphothiazole HCV polymerase inhibitors” (Idenix Pharmaceuticals, Inc., priority 2009, dated 2012).

Experiments:
[1] = test system: HCV Con1 subgenomic replicon of genotype 1b (GS4.1 cells); test: microbe, parasite or virus in culture; format: cell-based, HCV genotype 1b; settings: Hepatitis C virus; for EC50: 72 h
in vitro = settings: human
[2] = test system: Huh-7-derived cell line (Zluc) that harbors an HCV genotype 1b replicon and a luciferase reporter gene; test: microbe, parasite or virus in culture; format: cell-based; settings: Hepatitis C virus, 72 h
[3] = test system: Huh-7-derived cell line (Zluc) that harbors an HCV genotype 1b replicon and a luciferase reporter gene; test: microbe, parasite or virus in culture; format: cell-based; settings: Hepatitis C virus, 72 h; remark: listed apart in the source
[4] = Cytotoxicity (CC50) reported with the HCV replicon ELISA assay; settings: human

Row | SMILES | IC50 [1] [µM] | EC50 [1] [µM] | CC50 (in vitro) [µM] | EC50 [2] [µM] | EC50 [3] [µM] | CC50 at 72 hr [4] [µM]
1 | COP(=O)(c1ccc(C)cc1C)N(C)c1cc(-c2ccc(-c3cc4ncccc4o3)cc2)sc1C(=O)O (stereo not drawn) [Compound 145] | < 0.1 | < 0.1 | > 8.3 | – | – | –
2 | COP(=O)(Nc1cc(-c2ccc(C#Cc3ccccc3)cc2)sc1C(=O)O)c1ccc(C)cc1C (stereo not drawn) [Compound 146] | < 0.1 | < 0.1 | > 8.3 | – | – | –
3 | COP(=O)(Nc1cc(-c2ccc(-c3ccc(Cl)c(Cl)c3)cc2)sc1C(=O)O)c1ccc(C)cc1C (stereo not drawn) [Compound 147] | 0.1 to 8.3 | 0.1 to 8.3 | > 8.3 | – | – | –
4 | COC(=O)c1sc(-c2ccc(Br)cc2)cc1NP(=O)(OC)c1ccc(C)cc1C (stereo not drawn) [Compound 148] | > 8.3 | > 8.3 | > 8.3 | – | – | –
5 | COc1ccc(-c2cc(NP(=O)(OC)c3ccc(C)cc3C)c(C(=O)O)s2)cc1 (stereo not drawn) [Compound 149] | < 0.1 | 0.1 to 8.3 | > 8.3 | – | – | –
6 | CCOP(=O)(Nc1cc(-c2ccc(-c3cc4ncccc4o3)cc2)sc1C(=O)O)c1ccc(Cl)cc1Cl (stereo not drawn) [Compound 150] | < 0.1 | < 0.1 | > 8.3 | – | – | –
7 | COP(=O)(Nc1cc(-c2ccc(Cl)cc2Cl)sc1C(=O)O)c1ccc(C)cc1C (stereo not drawn) [Compound 151] | 0.1 to 8.3 | > 8.3 | > 8.3 | – | – | –
8 | COP(=O)(Nc1cc(-c2ccc(CC(C)C)cc2)sc1C(=O)O)c1ccc(C)cc1C (stereo not drawn) [Compound 154] | 0.1 to 8.3 | > 8.3 | > 8.3 | – | – | –
9 | CCOP(=O)(Nc1cc(-c2cc3ccccc3s2)sc1C(=O)O)c1ccc(Cl)cc1Cl (stereo not drawn) [Compound 157] | 0.1 to 8.3 | > 8.3 | > 8.3 | – | – | –
10 | CCOP(=O)(Nc1cc(-c2ccc(OCc3ccccc3)cc2)sc1C(=O)O)c1ccc(Cl)cc1Cl (stereo not drawn) [Compound 158] | 0.1 to 8.3 | 0.1 to 8.3 | > 8.3 | – | – | –
11 | COP(=O)(Nc1cc(-c2ccccc2)sc1C(=O)O)c1ccc(Cl)cc1Cl (stereo not drawn) [Compound 159] | 0.1 to 8.3 | > 8.3 | > 8.3 | – | – | –
12 | CCOP(=O)(Nc1cc(-c2ccc(Cl)c(Cl)c2)sc1C(=O)O)c1ccc(Cl)cc1Cl (stereo not drawn) [Compound 161] | 0.1 to 8.3 | > 8.3 | > 8.3 | – | – | –
13 | COP(=O)(Nc1cc(-c2ccccc2)sc1C(=O)O)c1ccc(C)cc1C (stereo not drawn) [Compound 162] | – | – | – | > 8.3 | 0.1 to 8.3 | –
14 | CCOP(=O)(Nc1cc(-c2ccc(Cl)cc2)sc1C(=O)O)c1ccc(Cl)cc1Cl (stereo not drawn) [Compound 163] | 0.1 to 8.3 | 0.1 to 8.3 | > 8.3 | – | – | –
15 | COP(=O)(Nc1cc(-c2ccc(-c3cc4ncccn4n3)cc2)sc1C(=O)O)c1ccc(C)cc1C (stereo not drawn) [Compound 169] | – | – | – | < 0.1 | < 0.1 | –
16 | CCOP(=O)(Nc1cc(-c2ccc(F)cc2)sc1C(=O)OC)c1ccc(Cl)cc1Cl (stereo not drawn) [Compound 170] | – | > 8.3 | > 8.3 | – | – | –
17 | COC(=O)c1sc(-c2ccc(F)cc2)cc1NP(=O)(OC(C)C)c1ccc(C)cc1C (stereo not drawn) [Compound 171] | > 8.3 | > 8.3 | – | – | – | > 8.3
18 | COC(=O)c1sc(-c2ccc(F)cc2)cc1NP(=O)(OC)c1ccc(C)cc1C (stereo not drawn) [Compound 172] | > 8.3 | > 8.3 | > 8.3 | – | – | –
19 | CCOP(=O)(Nc1cc(-c2ccc(F)cc2)sc1C(=O)OC)c1ccc(C)cc1C (stereo not drawn) [Compound 173] | > 8.3 | > 8.3 | > 8.3 | – | – | –
20 | COP(=O)(Cc1cc(-c2ccc(-c3cc4ncccc4o3)cc2)sc1C(=O)O)c1ccc(C)cc1C (stereo not drawn) [Compound 174] | < 0.1 | < 0.1 | > 8.3 | – | – | –
21 | CCOP(=O)(Cc1cc(-c2ccc(-c3cc4ncccn4n3)cc2)sc1C(=O)O)c1ccc(C)cc1C (stereo not drawn) [Compound 175] | < 0.1 | 0.1 to 8.3 | > 8.3 | – | – | –
22 | COP(=O)(Cc1cc(-c2ccc(F)cc2)sc1C(=O)O)c1ccc(C)cc1C (stereo not drawn) [Compound 176] | 0.1 to 8.3 | > 8.3 | > 8.3 | – | – | –
23 | COP(=O)(Cc1cc(-c2ccccc2)sc1C(=O)O)c1ccc(C)cc1C (stereo not drawn) [Compound 177] | 0.1 to 8.3 | > 8.3 | > 8.3 | – | – | –
24 | CCOP(=O)(Cc1cc(-c2ccccc2)sc1C(=O)O)c1ccc(C)cc1C (stereo not drawn) [Compound 178] | 0.1 to 8.3 | > 8.3 | > 8.3 | – | – | –
25 | CCOP(=O)(Cc1cc(-c2ccc(F)cc2)sc1C(=O)O)c1ccc(C)cc1C (stereo not drawn) [Compound 179] | 0.1 to 8.3 | > 8.3 | > 8.3 | – | – | –
